In patent US20240197596A1, “COMPOUNDS USEFUL AS HAIR DYES” (National University of Singapore, priority 2021, published 2024):
Values after ≈ are worked out from the molar mass of the structure shown. “Also recorded” adds a separate entry of the source.

What was measured:
[1] = Thermodynamic solubility assay (modified shake flask, LC-MS/MS); conditions: Milli-Q water, pH=7, 25° C., 24 h, 3 separate determinations; for solubility at 24 h: 25 °C, pH 7, water, thermodynamic from solid
Procedure: The aqueous solubilities (pH=7) of these compounds were measured using the modified shake flask method and LC-MS/MS. Each hair dye was added into a 2 mL glass vial containing Milli-Q water (1 mL) to form the precipitates at 25° C. Then the mixture was subjected to a solubility-equilibrium stage. The vials were shaken at 300 rpm at 25° C. for 24 h. The precipitate was separated by centrifugation at 23,000 g for 20 min. Subsequently, 0.5 mL of supernatant was transferred into a 1 mL Eppendorf tube, and it was centrifuged again as mentioned above. The supernatant was then used for LC-MS/MS analysis.
The mass spectrometric analysis was performed by use of a AB SCIEX QTRAP 5500 tandem mass spectrometry (MS/MS) system (AB SCIEX, Framingham, MA, USA) operating in triple quadrupole positive mode (ESI+) equipped with an AB Sciex Turbo Ion Spray interface. Acquisition and analysis of data were performed with Analyst software ver. 1.4.2 (Applied Biosystems) which performed all chromatographic peak integration. For each hair dye, a standard curve consisting of four concentrations was established.
Solvent A was composed of 0.1% [v/v] formic acid in Milli-Q water while solvent B was composed of 0.1% [v/v] formic acid in acetonitrile. A mobile phase gradient pumped at 0.6 mL/min was used to elute the hair dyes from the column. The column was equilibrated for 1 min resulting in a total run time of 5 min. The injection volume was 5.0 μL for all derivatives. To prevent compound accumulation on the needle, 50% methanol in ACN was used as needle wash for 30 s per sample.

[2] = Hair nuance test; design: key to L* / a* / b*: CIELAB L*, a*, b* coordinates; key to ΔE (total colour difference to natural hair): ΔE = √((L*−L0)²+(a*−a0)²+(b*−b0)²) vs untreated hair; conditions: for eventual colour of bleached hair, Type B: Type B (Oxidative, H2O2) formulation; for eventual colour of bleached hair, Type C: Type C (Oxidative with coupler resorcinol) formulation; for eventual colour of bleached hair, Type A: Type A (Non-oxidative) formulation
Procedure: 35 g of bleaching powder was mixed with 50 mL of developer then applied onto undyed black hair (wrapped in aluminium foil to enhance the bleaching process) and left on for 45 min. The hair was then rinsed with deionized water and shampoo and left to dry. This process was repeated twice.
Hair dye formulations were prepared from N1-N13 according to methods reported (New Journal of Chemistry. 2019; 43(41):16188-99), and with the compositions stated in Table 11 Bleached hair samples were immersed into the respective formulations for 20 min, then air dried for 20 min. Then they were shampooed twice and treated with conditioner for 5 min.
SkinColorCatch (Delfin Technologies Ltd, Kuopio, Finland) was used to measure CIELAB tristimulus L*, a* and b* values of the dyed hair samples and baseline L0, a0, b0 values from untreated hair. The difference in colour tone (ΔH) and the total colour difference (ΔE) were then derived from the values obtained with the equations below:
ΔH=√{square root over ((a*−a0)^2+(b*−b0)^2)}
ΔE=√{square root over ((L*−L0)^2+(a*−a0)^2+(b*−b0)^2)}

[3] = Skin permeation study, Franz diffusion cell; assay type: in vitro ADME, porcine; conditions: for Cumulative amount at 8th hour: 1% w/v in deionized water; for Permeated through skin into receptor / Recovered in donor compartment / Recovered in skin / Recovered in skin outside diffusion area / Recovered in skin swabs / Recovered on parafilm and in washes: mass balance; for recovery at 8 h, 1 % w/v: pig, end of 8 h, read-out: Total recovery (mean percentage parent compound recovery)
Procedure: In each Franz cell, a piece of pig ear skin prepared to a thickness of […] was clamped securely. 5 mL of PBS solution was added to the receiver compartment which was purged of air bubbles to ensure maximal contact of the skin piece with the solution. Donor solution was prepared by dissolving N1-N13 in deionized water at 1% w/v, and 900 μL was added to the donor compartment. The study was conducted for 8 h, and aliquots of 200 μL were removed from the receiver solution and topped up with fresh PBS at each timepoint of 15-minutes intervals for the first hour and every hour after that.
For mass balance, at the end of 8 h, skin pieces and swabs of the top and bottom surface of the skin were collected and stored in ACN for N1-N13 extraction. Donor solution and receiver solution were also collected.
The aliquot samples collected were subjected to 2-step extraction using 750 μL of dichloromethane (DCM). […] The solvent was dried using the TurboVap, and then reconstituted with 198 μL of 0.1% formic acid in 50% methanol in water and spiked with 2 μL of ANP (internal standard). The processed aliquot samples and mass balance samples were then sent for analysis using LC-MS/MS. The compounds' steady state fluxes and permeability coefficients were then calculated by fitting the solution to Fick's […] of diffusion at the steady state (linear part) of each experimental cumulative amount curve.

[4] = tested on: THP-1 cells; experiment: MTT assay on THP-1 cells (CV75); assay type: cell-based, human; conditions: THP-1 cells, 24 h
Procedure: THP-1 (human acute monocytic leukaemia cell line) cell suspension was adjusted to 1×10^5 cells per well and seeded in 96-well plates. The plate was incubated at 37° C. with 5% CO2. After 24 h, 10 mM stock solutions of N1-N13 were prepared in autoclaved milli-Q water. A series of concentrations diluted in media was prepared and added to the wells. Each concentration was performed in 6-replicates, and seeded wells with only media and no compound were used as controls while wells with only media were used as blanks. The plate was incubated for 24 h, after which 100 μL of MTT reagent was added and the plate was further incubated for 3 h before adding 100 μL of DMSO. Subsequently, the plate was shaken for 20 min, and then absorbance at 570 nm was determined using a Bio-Tek plate reader. Percentage cell viability was calculated and CV75 values were determined.

[5] = Type C (Oxidative with coupler resorcinol)

Row | Compound | L* ([2]; Type A (Non-oxidative)) | a* ([2]; Type A (Non-oxidative)) | b* ([2]; Type A (Non-oxidative)) | ΔE (total colour difference to natural hair) ([2]; Type A (Non-oxidative)) | ΔH (difference in colour tone) ([2]; Type A (Non-oxidative)) | L* ([2]; Type B (Oxidative)) | a* ([2]; Type B (Oxidative)) | b* ([2]; Type B (Oxidative)) | ΔE (total colour difference to natural hair) ([2]; Type B (Oxidative)) | ΔH (difference in colour tone) ([2]; Type B (Oxidative)) | eventual colour of bleached hair, Type B [2] | L* [2, 5] | a* [2, 5] | b* [2, 5] | ΔE (total colour difference to natural hair) [2, 5] | ΔH (difference in colour tone) [2, 5] | eventual colour of bleached hair, Type C [2] | Cumulative amount at 8th hour ([3]; 8 h) | Permeated through skin into receptor ([3]; 8 h) | Recovered in donor compartment ([3]; 8 h) | also measured
1 | COC(COc1cc(N)ccc1N)OC [Compound N1, 2-(2,2-dimethoxyethoxy)benzene-1,4-diamine] | 23 | 12 | 8 | 19.7 | 13.9 | 9 | −0 | −1 | 2.0 | 2.0 | black colour | 21 | 18 | 8 | 22.7 | 19.3 | Dark brown | 0.0073 μg/cm^2 | <0.001 % of applied compound dose | 96.7 % of applied compound dose | solubility at 24 h [1]: 78 to 100 mg/mL (≈ 367 to 471 mM); Solubility [1]: 85 + 4.0 mg/ml; Recovered in skin ([3]; 8 h): 0.05 % of applied compound dose; Recovered in skin outside diffusion area ([3]; 8 h): 0.0015 % of applied compound dose; Recovered in skin swabs ([3]; 8 h): 0.04 % of applied compound dose; Recovered on parafilm and in washes ([3]; 8 h): 0.003 % of applied compound dose; recovery at 8 h, 1 % w/v [3]: 96 ± 1.26%; CV75 (concentration affording 75% cell viability), 1 × CV75 [4]: 143.4 µg/mL
2 | CCC(=O)COc1cc(N)ccc1N [Compound N11, 1-(2,5-diaminophenoxy)butan-2-one] | 36 | 5 | 8 | 28.33 | 5.32 | 9 | 0 | −1 | 2 | 1.41 | black colour | 32 | 18 | 25 | 37.8 | 6.14 | Pale Brown | 0.00794 μg/cm^2 | <0.001 % of applied compound dose | 93.7 % of applied compound dose | solubility at 24 h [1]: 45 mg/mL (≈ 232 mM); eventual colour of bleached hair, Type A [2]: Greyish brown; Cumulative amount comparison of PPD vs derivatives (times less than PPD) ([3]; 8 h): 680; Recovered in skin ([3]; 8 h): 0.06 % of applied compound dose; Recovered in skin outside diffusion area ([3]; 8 h): 0.002 % of applied compound dose; Recovered in skin swabs ([3]; 8 h): 0.025 % of applied compound dose; Recovered on parafilm and in washes ([3]; 8 h): 0.005 % of applied compound dose; recovery at 8 h, 1 % w/v [3]: 93.8 ± 1.3%; CV75 (concentration affording 75% cell viability), 1 × CV75 [4]: 65.4 µg/mL
3 | Nc1ccc(N)c(OCC2CO2)c1 (stereo not drawn) [Compound N4, 2-(oxiran-2-ylmethoxy)benzene-1,4-diamine] | 49 | 5 | 29 | 49.1 | 28.4 | 40 | 6 | 16 | 35.0 | 16.2 | Coffee brown | 22 | 1 | −13 | 19.1 | 14.0 | vibrant blue colours; also recorded: Admiral blue | 0.0104 μg/cm^2 | <0.001 % of applied compound dose | 98.9 % of applied compound dose | solubility at 24 h [1]: 65 to 72 mg/mL (≈ 361 to 400 mM); Solubility [1]: 70 + 4.6 mg/ml; Recovered in skin ([3]; 8 h): 0.02 % of applied compound dose; Recovered in skin outside diffusion area ([3]; 8 h): 0.005 % of applied compound dose; Recovered in skin swabs ([3]; 8 h): 0.03 % of applied compound dose; Recovered on parafilm and in washes ([3]; 8 h): 0.008 % of applied compound dose; recovery at 8 h, 1 % w/v [3]: 99 ± 1.15%; CV75 (concentration affording 75% cell viability), 1 × CV75 [4]: 62.3 µg/mL
4 | N#CCOc1cc(N)ccc1N [Compound N6, 2-(2,5-diaminophenoxy)acetonitrile] | 55.0 | 10.0 | 19.0 | 50.3 | 20.5 | 15 | 4 | 5 | 8.2 | 5.6 | Dark brown | 13 | 5 | 4 | 7.1 | 5.8 | Brownish black | 0.0145 μg/cm^2 | <0.001 % of applied compound dose | 99.1 % of applied compound dose | eventual colour of bleached hair, Type A [2]: light colours; also recorded: Rose pink; Recovered in skin ([3]; 8 h): 0.01 % of applied compound dose; Recovered in skin outside diffusion area ([3]; 8 h): 0.006 % of applied compound dose; Recovered in skin swabs ([3]; 8 h): 0.04 % of applied compound dose; Recovered on parafilm and in washes ([3]; 8 h): 0.002 % of applied compound dose; CV75 (concentration affording 75% cell viability), 1 × CV75 [4]: 123.7 µg/mL
